Experimental data taken from patent publication US5098613A, “Anti-inflammatory agents” (Eli Lilly and Company, priority 1990, dated 1992).
Structures can show the parent of a compound that is named as a salt.

Tests used:
[1] = tested on: IL-1 induced T-cell Proliferation; assay: Anti IL-1 Activity (Thymocyte Assay): suppression of IL-1 induced T-cell proliferation; format: cell-based, C3H/HeJ male mice; settings: mouse thymocytes, 48 hours, read-out: Percent T-cell suppression; for inhibition at 1 µg/mL: 1 mcg/ml; for inhibition at 10 µg/mL: 10 mcg/ml
Protocol: Thymus from 3-4 week old C3H/HeJ male mice and were passed through a #100 mesh screen to make a single cell suspension. The cells were suspended in RPMI-1640 supplemented with 2×10^-5 M 2-mercaptoethanol, 3% fetal calf serum, and 1% Penicillin/Streptomycin. The cell suspension was placed in a tissue culture flask and incubated at 37° C. in 5% carbon dioxide in air for 1-2 hours. The thymocytes were decanted, leaving adherent cells behind, and the liquid was centrifuged at 1400 rpm for 10 minutes. After decanting the supernatant, the cells were resuspended and counted with a hemocytometer. The density was adjusted to […]. Fifty μ1 of the suspension were added to each well of a 96-well microtiter plate, followed by the addition of 25 μl of PHA and 25 μl IL-1 (1:25 dilution of a 10 mcg/ml stock solution) per well.
Each compound to be tested was dissolved in 30% DMSO/70% PBS to make a stock solution of 1 mg/ml. Fifteen μl of each compound were added to 300 μl of media in the serial dilution plate. Twenty-five μl of each drug were added to the test plate in quadruplicate wells across the plate. The plate was incubated at 37° C. in 5% carbon dioxide in air for 48 hours. The wells were pulsed with tritiated thymidine (5 μCi.well) for 4 hours before harvesting on a Skatron cell harvester. The filter discs were placed in mini-vials, scintillation fluid (Tol-Pop) was added, and the vials counted. The percent of counts for each vial compared with control samples wherein no compound was added (vehicles only) was determined for each compound and are reported as Table III below as the percent T-ce1 suppression.

[2] = target: T1, leukotriene B4 specific receptor on the membrane of human neutrophils (Homo sapiens, UniProt Q15722); assay: Inhibition of Binding of ^3 H-LTB4 to Peripheral Human Neutrophils; settings: 4° C., 10 minutes; for inhibition at 10 µM: drug concentration 10^-5 M, read-out: LTB4 Binding Inhibition; for inhibition at 1 µM: drug concentration 10^-6 M
T1 construct: incubating neutrophils (1×10^7 cells) with 0.1-0.2 nM ^3 H-LTB4; endogenous in cells; host or cells: human peripheral blood neutrophils (buffy coats of two blood donors)
T1 sequence (Q15722 whole entry): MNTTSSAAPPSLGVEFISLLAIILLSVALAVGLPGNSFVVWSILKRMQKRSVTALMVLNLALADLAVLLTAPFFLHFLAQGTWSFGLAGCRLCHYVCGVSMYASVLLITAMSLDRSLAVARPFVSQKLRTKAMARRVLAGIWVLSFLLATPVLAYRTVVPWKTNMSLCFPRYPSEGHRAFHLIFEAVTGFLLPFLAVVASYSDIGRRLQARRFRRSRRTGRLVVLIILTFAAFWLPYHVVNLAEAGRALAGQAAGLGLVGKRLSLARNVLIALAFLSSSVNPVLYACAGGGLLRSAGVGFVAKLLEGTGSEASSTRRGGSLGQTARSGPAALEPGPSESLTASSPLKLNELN
Protocol: The effectiveness of compounds to inhibit the binding of leukotriene B4 to a specific receptor on the membrane of human neutrophils was measured by using an adaptation of a radio-ligand binding assay developed by Goldman and Goetzl, J. Immunol., 129, 1600 (1982). Other investigators have developed similar assays (see, e.g., Kreisle, et al., J. Exp. Med., 157, 628 (1983) and Lin, et al., Prostaglandins, 28, 837 (1984)).
Cells used in the assay were isolated by standard techniques of centrifugation on Ficol-Hypaque, dextran 70 sedimentation and hypotonic lysis. The following procedure was used. Freshly-prepared buffy coat layers from two individuals were obtained from a local blood donor center. The cells were mixed and diluted to 484 ml. with phosphate buffered saline containing heparin (10 units/ml) and heat-inactivated calf serum (5%). This was divided into 20 ml. aliquots and the aliquots layered on top of Ficoll-Paque (12 ml.). The material was then centrifuged at 500 g. for 40 minutes at room temperature. The resulting upper layer of platelets and mononuclear cells was discarded. The lower layer containing erythrocytes and neutrophils was retained. Buffer was added (1 ml. per 4 ml. of lower layer) and the suspension mixed. For each milliliter of this mixture, 0.33 ml. of 6% Macrodex was added. After stirring, the cels were allowed to sediment for 1 hour at 37° C. The resulting erythrocyte pellet was discarded and the neutrophil enriched supernatant fluid centrifuged at 500 g. for 10 minutes at 4° C. Erythrocytes still present in this cell pellet were lysed by incubating the cells with 5-8 ml. ice-cold distilled water for 30-45 seconds. Subsequently, the volume was made up to 50 ml. by addition of ice-cold buffer and the cells resuspended. The suspension was then centrifuged at 300 g. for 10 minutes at 4° C. The cells were finally resuspended at a cell density of 2×10^7 cells/ml in the assay buffer. This buffer Consisted of Hanks' balanced salt solution and 0.1% ovalbumin (pH 7.3).
The radio-ligand binding assay was conducted by incubating neutrophils (1×10^7 cells) with 0.1-0.2 nM ^3 H-LTB4 (sp. act. 150-220 Curies/mmol) and test compound (1×10^-5 M and 1×10^-6 M) for 10 minutes at 4° C. The amount of bound ^3 H-LTB4 was then measured and compared with the amount bound in the absence of test compound. The assay was carried out in microcentrifuge tubes by adding first 10 μl test compound dissolved in DMSO, followed by adding 20 μl ^3 H-LTB4 diluted in assay buffer, and finally adding 500 μl of the cell suspension pension. At the end of the 10 minutes incubation, 300 μl of a mixture of dibutyl and dinonyl phthalate (7:2) were added and the tubes centrifuged for 2 minutes in a microcentrifuge. The radioactivity bound to the cell pellet was measured by scintillation spectroscopy. Appropriate corrections for nonspecific bonding of ^3 H-LTB4 were made.

Row | inhibition at 10 µM [2] [%] | inhibition at 1 µM [2] [%] | Compound | inhibition at 1 µg/mL [1] [%] | inhibition at 10 µg/mL [1] [%]
1 | 37 | 7 | CCCCc1cc(C(C)=O)c(O)cc1OCCCCC#N [Example 30, 5-(4-Acetyl-2-butyl-5-hydroxyphenoxy)-pentanenitrile] | 32 | 91
2 | 40 | 7 | CC(=O)c1cc(CO)c(OCCCCCCC#N)cc1O [Example 36, 7-[4-Acetyl-5-hydroxy-2-(hydroxymethyl)-phenoxy]heptanenitrile] | 15 | 75
3 | 12 to 16 | 7 to 8 | C=CCc1cc(C(C)=O)c(OC)cc1OCCCCC#N [Example 115, 5-(4-Acetyl-5-methoxy-2-allylphenoxy)pentanenitrile] | 29 | 96
4 | 10 | 6 | CC(=O)c1cc(CC(C)O)c(OCCCCC#N)cc1O (centres unmarked) [Example 125, 5-[4-Acetyl-5-hydroxy-2-(2-hydroxypropyl)-phenoxy]pentanenitrile] | 30 | 85
5 | 16 | 8 | C=CCc1cc(C(C)=O)c(O)cc1OCCCCCCCC [Example 38, 4-(Octyloxy)-5-allyl-2-hydroxyacetophenone] | -8 | 28
6 | 10 | 6 | C=CCc1cc(C(=O)CCCCCCCCC)c(O)cc1OCCCCC#N [Example 107, 5-[5-Hydroxy-4-(1-oxodecyl)-2-allylphenoxy]pentanenitrile] | 47 | 26
7 | 35 | 13 | CCCc1cc(C(C)=O)c(Cl)cc1OCCCCC#N [Example 15, 5-(4-Acetyl-5-chloro-2-propylphenoxy)-pentanenitrile] | 33 | 91
8 | 0 | 0 | CCCc1cc(C(C)=O)c(O)cc1OCCCCC(=O)O [Example 132, 5-(4-Acetyl-5-hydroxy-2-propylphenoxy)pentanoic acid] | 15 | 59
9 | 69 | 27 | CCc1cc(C(C)=O)c(O)cc1OCCCCc1nnn(CC(=O)O)n1 [Example 143, 5-[4-(4-Acetyl-2ethyl-5-hydroxyphenoxy)-butyl]-2H-tetrazole-2-acetic acid] | – | –
10 | 90 | 57 | CCOC(=O)Cn1nnc(CCCCOc2cc(O)c(C(C)=O)cc2CC)n1 [Example 141, 5-[4-(4-Acetyl-2-ethyl-5-hydroxyphenoxy)-butyl]-2H-tetrazole-2-acetic acid, ethyl ester] | – | –
11 | 90 | 59 | CCc1cc(C(C)=O)c(O)cc1OCCCCCCCC(C)(C)C(=O)N(C)O [Example 150, N-Methyl-N-hydroxy-9-(4-acetyl-2-ethyl-5-hydroxyphenoxy)-2,2-dimethylnonanamide] | – | –
12 | 5 | 3 | CC(=O)c1cc(C=O)c(OCCCCC#N)cc1O [Example 18, 5-(4-Acetyl-5-hydroxy-2-formylphenoxy)-pentanenitrile] | – | –
13 | 6 | 12 | C=CCc1cc(C(C)=O)c(O)cc1OC [Example 42, 2-Hydroxy-4-methoxy-5-allylacetophenone] | – | –
14 | 88 | 51 | C=CCc1cc(C(C)=O)c(O)cc1OCCCCCCCC#N [Example 69, 8-(4-Acetyl-5-hydroxy-2-allylphenoxy)octanenitrile] | – | –
15 | 19 | 2 | C=CCc1cc(C(C)=O)c(O)cc1OCC#N [Example 25, (4-Acetyl-5-hydroxy-2-allylphenoxy)-acetonitrile] | – | –
16 | 72 | 26 | C=CCCCCOc1cc(O)c(C(C)=O)cc1CC=C [Example 46, 4-(5-Hexenyloxy)-2-hydroxy-5-allylacetophenone] | – | –
17 | 73 | 29 | C#CCCCCOc1cc(O)c(C(C)=O)cc1CC=C [Example 57, 4-(5-Hexynyloxy)-2-hydroxy-5-allylaceto-phenone] | – | –
18 | 97 | 57 | C=CCc1cc(C(C)=O)c(O)cc1OCCCCCC(C)=O [Example 102] | – | –
19 | 81 | 28 | CCc1cc(C(C)=O)c(O)cc1OCc1cccc(C(=O)O)c1 [Example 84] | – | –
20 | 87 | 37 | C=CCc1cc(C(C)=O)c(O)cc1OCCCCCC(N)=O [Example 96, 6-(4-Acetyl-5-hydroxy-2-allylphenoxy)hexanamide] | – | –
21 | 106 | 64 | C=CCc1cc(C(C)=O)c(O)cc1OCCCCCC(=O)OC [Example 94, 6-(4-Acetyl-5-hydroxy-2-allylphenoxy)hexanoic acid, methyl ester] | – | –
22 | 94 | 59 | C=CCc1cc(C(C)=O)c(O)cc1OCCCCCCC#N [Example 24, 7-(4-Acetyl-5-hydroxy-2-allylphenoxy)-] | – | –

Row | Compound | inhibition at 10 µM [2] [%] | inhibition at 1 µM [2] [%] | inhibition at 1 µg/mL [1] [%] | inhibition at 10 µg/mL [1] [%]
23 | CCc1cc(C(=O)c2ccccc2C(=O)O)c(O)cc1OCCCCC#N [Example 89, 2-[4-(4-Cyanobutoxy)-5-ethyl-2-hydroxybenzoyl]benzoic acid] | 11 | 15 | 9 | 39
24 | C=CCc1cc(C(C)=O)c(O)cc1OCCCCc1nn[nH]n1 [Example 109, 2-Hydroxy-5-allyl-4-[4-(lH-tetrazol-5-yl)-butoxy]acetophenon] | 41 | 3 | 7 | 56
25 | CCc1cc(C(=O)CCCCC(=O)O)c(O)cc1OCCCCC#N [Example 90, 6-[(4-Cyanobutoxy)-5-ethyl-2-hydroxybenzene]-6-oxohexanoic acid] | 1 | -2 | 3 | 47
26 | C=CCc1cc(C(C)=O)c(O)cc1OCCCCN(C)C [Example 76, 4-[4-(Dimethylamino)butoxy]-2-hydroxy-5-allylacetophenone hydrochloride] | 0 | 0 | 39 | 79
27 | C=CCc1cc(C(=O)CCCC(=O)O)c(O)cc1OCCCCC#N [Example 106, 5-[4-(4-Cyanobutoxy)-2-hydroxy-5-allylphenyl)-5-oxopentanoic acid] | 9 | 1 | – | –
28 | C=CCc1cc(C(C)=O)c(O)cc1OCCCC [Example 40, 4-Butoxy-2-hydroxy-5-allylacetophenone] | 31 | 8 | – | –
